For 29 molecules, EC50 results are on record in patent US9920010B2, “CXCR7 receptor modulators” (IDORSIA PHARMACEUTICALS LTD, priority 2013, dated 2018).

The assay deals with T1, CXCR7 (Homo sapiens, UniProt P25106).
T1 construct: host or cells: CHO-K1 (PathHunter CHO-K1 CXCR7 b-arrestin cell line, stably transfected)
Kind of assay: PathHunter CHO-K1 CXCR7 b-arrestin recruitment assay (CXCR7 agonistic activity). The assay is classed as cell-based. The note with it: PathHunter CHO-K1 CXCR7 b-arrestin cell line. The essentials:
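Stable CHO-K1 line with C-terminally ProLink-tagged CXCR7 and β-arrestin 2–EA fusion; β-arrestin recruitment restores β-gal activity, read by chemiluminescence after 1 h RT detection. Cells seeded 24 h, starved in OPTIMEM 3–4 h, exposed to compounds 90 min at 37 °C in HBSS/HEPES/BSA. Geometric-mean EC50 from repeated measurements.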

T1 sequence (P25106 whole entry): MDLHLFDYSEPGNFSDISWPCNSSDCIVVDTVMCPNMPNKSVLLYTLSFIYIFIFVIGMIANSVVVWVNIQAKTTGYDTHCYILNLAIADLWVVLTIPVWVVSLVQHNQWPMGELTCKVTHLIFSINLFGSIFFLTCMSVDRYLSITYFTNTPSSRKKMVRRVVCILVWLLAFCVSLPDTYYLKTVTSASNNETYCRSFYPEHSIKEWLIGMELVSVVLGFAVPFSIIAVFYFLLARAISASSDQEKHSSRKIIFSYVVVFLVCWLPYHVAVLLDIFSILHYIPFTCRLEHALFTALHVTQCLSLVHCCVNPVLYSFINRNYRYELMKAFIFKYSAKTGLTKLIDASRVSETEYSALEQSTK
T1 sequence (P32121 whole entry partner): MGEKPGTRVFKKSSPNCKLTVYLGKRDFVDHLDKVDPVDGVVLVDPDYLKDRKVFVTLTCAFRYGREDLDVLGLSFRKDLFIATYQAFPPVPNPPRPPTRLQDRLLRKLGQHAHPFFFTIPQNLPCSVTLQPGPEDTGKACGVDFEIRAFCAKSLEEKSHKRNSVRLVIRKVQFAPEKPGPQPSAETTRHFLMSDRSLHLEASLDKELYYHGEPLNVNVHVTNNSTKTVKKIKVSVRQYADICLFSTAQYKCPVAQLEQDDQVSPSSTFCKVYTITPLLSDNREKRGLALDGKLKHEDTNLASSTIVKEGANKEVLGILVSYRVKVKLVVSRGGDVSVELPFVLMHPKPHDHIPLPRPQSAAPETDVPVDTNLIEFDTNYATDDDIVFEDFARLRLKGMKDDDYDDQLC

In turn, `C/C(=C\c1ccccc1)CN(CCN(C)C)C(=O)CNc1cccc2c1CCN(CC1CC1)C2` [Example 45, 2-(2-Cyclopropylmethyl-1,2,3,4-tetrahydro-isoquinolin-5-ylamino)-N-(2-dimethylamino-ethyl)-N-((E)-2-methyl-3-phenyl-allyl)-acetamide] had an EC50 of 0.008 µM. Turning to `CC(C)CCN(Cc1ccccc1)C(=O)COc1cccc2c1CCN(CC1CC1)C2` [compound 163, N-Benzyl-2-(2-cyclopropylmethyl-1,2,3,4-tetrahydro-isoquinolin-5-yloxy)-N-(3-methyl-butyl)-acetamide], the response was half-maximal at 0.017 µM (EC50). Regarding `CN1CCCC(N(Cc2ccccc2C(F)(F)F)C(=O)CNc2cccc3c2CCN(C(=O)OC(C)(C)C)C3)C1` (racemic) [Example 11, rac-5-({[(1-Methyl-piperidin-3-yl)-(2-trifluoromethyl-benzyl)-carbamoyl]-methyl}-amino)-3,4-dihydro-1H-isoquinoline-2-carboxylic acid tert-butyl ester], the midpoint of the response, the EC50, lay at 0.052 µM.

Turning to `COCCN1CCc2c(CCC(=O)N(CCN(C)C)Cc3ncccc3Cl)cccc2C1` [Example 346, N-(3-Chloro-pyridin-2-ylmethyl)-N-(2-dimethylamino-ethyl)-3-[2-(2-methoxy-ethyl)-1,2,3,4-tetrahydro-isoquinolin-5-yl]-propionamide], the EC50 came out at 0.073 µM. `CCN1CCc2c(cccc2NCC(=O)N(Cc2ccccc2C(F)(F)F)C2CCN(C)CC2)C1` [compound 137, 2-(2-Ethyl-1,2,3,4-tetrahydro-isoquinolin-5-ylamino)-N-(1-methyl-piperidin-4-yl)-N-(2-trifluoromethyl-benzyl)-acetamide]: the EC50 came to 0.045 µM. Molecule `CCN1CCc2cccc(NCC(=O)N(CCN(C)C)Cc3c(F)cccc3F)c2C1` [compound 524, N-(2,6-Difluoro-benzyl)-N-(2-dimethylamino-ethyl)-2-(2-ethyl-1,2,3,4-tetrahydro-isoquinolin-8-ylamino)-acetamide] showed an EC50 of 0.027 µM.

Consider `COCCN1CCc2c(CCC(=O)N(CCN(C)CCF)Cc3ccccc3C(F)(F)F)cccc2C1` [Example 342, N-{2-[(2-Fluoro-ethyl)-methyl-amino]-ethyl}-3-[2-(2-methoxy-ethyl)-1,2,3,4-tetrahydro-isoquinolin-5-yl]-N-(2-trifluoromethyl-benzyl)-propionamide], for which the midpoint of the response, the EC50, lay at 0.11 µM. `CCN1CCc2c(cccc2OCC(=O)N(CCN(C)C)Cc2ccccc2)C1` [compound 165] showed a 50% effective concentration (EC50) of 0.061 µM. In turn, `CCC(=O)N1CCc2c(cccc2NCC(=O)N(CCN(C)C)Cc2cccc(C)c2)C1` [Example 14, N-(2-Dimethylamino-ethyl)-N-(3-methyl-benzyl)-2-(2-propionyl-1,2,3,4-tetrahydro-isoquinolin-5-ylamino)-acetamide] yielded an EC50 of 0.053 µM. The EC50 values of the last two molecules are within 1.5-fold of each other. For `COCCN1CCc2c(cccc2NCC(=O)N(CCN2CCC(F)(F)CC2)Cc2ncccc2C(F)(F)F)C1` [Example 300, N-[2-(4,4-Difluoro-piperidin-1-yl)-ethyl]-2-[2-(2-methoxy-ethyl)-1,2,3,4-tetrahydro-isoquinolin-5-ylamino]-N-(3-trifluoromethyl-pyridin-2-ylmethyl)-acetamide], the EC50 worked out at 0.096 µM. As for `C=CCN(C)CCN(Cc1ccccc1C(F)(F)F)C(=O)CCc1cccc2c1CCN(CC=C)C2` [Example 348, N-[2-(Allyl-methyl-amino)-ethyl]-3-(2-allyl-1,2,3,4-tetrahydro-isoquinolin-5-yl)-N-(2-trifluoromethyl-benzyl)-propionamide], the figure is 0.013 µM; as for `CNCCN(Cc1ccccc1C(F)(F)F)C(=O)CNc1cccc2c1CCN(C(=O)C1CC1)C2` [Example 385, 2-(2-Cyclopropanecarbonyl-1,2,3,4-tetrahydro-isoquinolin-5-ylamino)-N-(2-methylamino-ethyl)-N-(2-trifluoromethyl-benzyl)-acetamide], 0.007 µM.

Take `CC(c1ccccc1C(F)(F)F)N(CCN(C)C)C(=O)CNc1cccc2c1CCN(CC1CC1)C2` (racemic) [Example 58, rac-2-(2-Cyclopropylmethyl-1,2,3,4-tetrahydro-isoquinolin-5-ylamino)-N-(2-dimethylamino-ethyl)-N-[1-(2-trifluoromethyl-phenyl)-ethyl]-acetamide]: the EC50 is 0.016 µM.

Consider `O=C(CNc1cccc2c1CCN(CC1CC1)C2)N(CCN1CCC(F)(F)CC1)Cc1ccccc1Cl` [Example 248, N-(2-Chloro-benzyl)-2-(2-cyclopropylmethyl-1,2,3,4-tetrahydro-isoquinolin-5-ylamino)-N-[2-(4,4-difluoro-piperidin-1-yl)-ethyl]-acetamide], for which the response was half-maximal at 0.032 µM (EC50).

`CN(CCN(Cc1ccccc1C(F)(F)F)C(=O)CNc1cccc2c1CCN(CC1CC1)C2)CC1CC1` [compound 450, N-[2-(Cyclopropylmethyl-methyl-amino)-ethyl]-2-(2-cyclopropylmethyl-1,2,3,4-tetrahydro-isoquinolin-5-ylamino)-N-(2-trifluoromethyl-benzyl)-acetamide] showed an EC50 of 0.001 µM. `O=C(CNc1cccc2c1CCN(CC1CC1)C2)N(Cc1ccccc1C(F)(F)F)C1CCC(O)CC1` (centres unmarked) [Example 222, 2-(2-Cyclopropylmethyl-1,2,3,4-tetrahydro-isoquinolin-5-ylamino)-N-(4-hydroxy-cyclohexyl)-N-(2-trifluoromethyl-benzyl)-acetamide] gave an EC50 of 0.027 µM. The molecule `CN(C)CCN(Cc1ccccc1C(F)(F)F)C(=O)CNc1cccc2c1CCN(CCCF)C2` [Example 574, N-(2-Dimethylamino-ethyl)-2-[2-(3-fluoro-propyl)-1,2,3,4-tetrahydro-isoquinolin-5-ylamino]-N-(2-trifluoromethyl-benzyl)-acetamide] showed an EC50 of 0.006 µM. As for `CS(=O)(=O)CCN(Cc1ccccc1C(F)(F)F)C(=O)CNc1cccc2c1CCN(CC1CC1)C2` [Example 229, 2-(2-Cyclopropylmethyl-1,2,3,4-tetrahydro-isoquinolin-5-ylamino)-N-(2-methanesulfonyl-ethyl)-N-(2-trifluoromethyl-benzyl)-acetamide], the figure is 0.038 µM. Molecule `CN(C)CCN(Cc1ncccc1C(F)(F)F)C(=O)CNc1cccc2c1CCN(C1CCC1)C2` [Example 366, 2-(2-Cyclobutyl-1,2,3,4-tetrahydro-isoquinolin-5-ylamino)-N-(2-dimethylamino-ethyl)-N-(3-trifluoromethyl-pyridin-2-ylmethyl)-acetamide] had an EC50 of 0.002 µM. In the case of `CCN1CCc2cccc(NCC(=O)N(Cc3nc(C)cs3)Cc3ccccc3C(F)(F)F)c2C1` [compound 520], the response was half-maximal at 0.188 µM (EC50). For the molecule `O=C(CNc1cccc2c1CN(CC1CC1)CC2)N(CC(=O)N1CC(F)(F)C1)Cc1ncccc1C(F)(F)F` [compound 483, 2-(2-Cyclopropylmethyl-1,2,3,4-tetrahydro-isoquinolin-8-ylamino)-N-[2-(3,3-difluoro-azetidin-1-yl)-2-oxo-ethyl]-N-(3-trifluoromethyl-pyridin-2-ylmethyl)-acetamide], the concentration giving a half-maximal response (EC50) stood at 0.033 µM. Molecule `CCC(=O)N1CCc2c(CCC(=O)N(CCN(C)C)Cc3ccccc3)cccc2C1` [Example 162, N-Benzyl-N-(2-dimethylamino-ethyl)-3-(2-propionyl-1,2,3,4-tetrahydro-isoquinolin-5-yl)-propionamide] returned an EC50 of 0.046 µM. Turning to `CN1CCN(C(=O)CNc2cccc3c2CCN(CC2CC2)C3)C(c2ccccc2)C1` (racemic) [Reference Example 104, rac-2-(2-Cyclopropylmethyl-1,2,3,4-tetrahydro-isoquinolin-5-ylamino)-1-(4-methyl-2-phenyl-piperazin-1-yl)-ethanone], the EC50 was 0.233 µM. In the case of `C=CCN1CCc2cccc(NCC(=O)N(CCN(C)C)Cc3ccccc3OC(F)(F)F)c2C1` [compound 464, 2-(2-Allyl-1,2,3,4-tetrahydro-isoquinolin-8-ylamino)-N-(2-dimethylamino-ethyl)-N-(2-trifluoromethoxy-benzyl)-acetamide], the EC50 is 0.036 µM. In turn, `O=C(CNc1cccc2c1CCN(C(=O)[C@@H]1C[C@@H]1F)C2)N(CCN1CCC(F)(F)CC1)Cc1ncccc1Cl` (racemic) [Example 294, rac-N-(3-Chloro-pyridin-2-ylmethyl)-N-[2-(4,4-difluoro-piperidin-1-yl)-ethyl]-2-[2-((1S*,2S*)-2-fluoro-cyclopropanecarbonyl)-1,2,3,4-tetrahydro-isoquinolin-5-ylamino]-acetamide] yielded an EC50 of 0.237 µM.

`COCCN1CCc2c(cccc2NCC(=O)N(Cc2ccccc2C(F)(F)F)CC(O)COC)C1` (centres unmarked) [Example 299, N-(2-Hydroxy-3-methoxy-propyl)-2-[2-(2-methoxy-ethyl)-1,2,3,4-tetrahydro-isoquinolin-5-ylamino]-N-(2-trifluoromethyl-benzyl)-acetamide] displayed an EC50 of 0.291 µM.

`CN(C)CCN(Cc1ccccc1C(F)(F)F)C(=O)CNc1cccc2c1CN(C(=O)C1CC1)CC2` [compound 560, 2-(2-Cyclopropanecarbonyl-1,2,3,4-tetrahydro-isoquinolin-8-ylamino)-N-(2-dimethylamino-ethyl)-N-(2-trifluoromethyl-benzyl)-acetamide] registered an EC50 of 0.005 µM.

`CC(C)OC(=O)N1CCc2cccc(NCC(=O)N(CCN(C)C)Cc3ccccc3C(F)(F)F)c2C1` [compound 553, 8-({[(2-Dimethylamino-ethyl)-(2-trifluoromethyl-benzyl)-carbamoyl]-methyl}-amino)-3,4-dihydro-1H-isoquinoline-2-carboxylic acid isopropyl ester] showed an EC50 of 0.014 µM. Turning to `CN(C)CCN(Cc1ccccc1)C(=O)CCc1cccc2c1CCN(CC1CC1)C2` [compound 161, N-Benzyl-3-(2-cyclopropylmethyl-1,2,3,4-tetrahydro-isoquinolin-5-yl)-N-(2-dimethylamino-ethyl)-propionamide], the EC50 came to 0.004 µM.
